# Entries after “also recorded” stand apart in the source; their conditions may differ. Where a SMILES comes first, the peptide text is derived from it.
# How the values were obtained:
# [1] = test system: retinal explants (RGCs); test: Retinotectal explant coculture: cell death in retinal explants and retinal axon growth into tectal slices; assay type: cell-based, mouse
# Experimental: Brains were dissected into ice-cold Gey's balanced salt solution enriched with glucose. […] Retinal explants were abutted against tectal slices. Tissues were placed on the microporous membrane of Millicell wells (Millipore) and maintained in NeuralBasal medium supplemented with B27 (GIBCO Inc., New York) at 37° C. for five days. To exclude the possibility that tectal tissues from mutant mice may affect axonal growth of RGCs, a series of parallel experiments were perforemd in which one retinal explant of each mouse was confronted with the tectum from the same mouse, while the second retinal explant was placed against the tectum from another mouse. With this arrangement, retinal explants from each animal had the possibility of being cocultured with the tectum from a wild-type, heterozygous, or homozygous animal. The number of regenerating axons was sampled by applying the lipophilic carbocyanine fluorescent label, DiI, in crystals to fixed retinal explants. The cocultures were stored in fixative for two-four weeks to allow diffusion of the dye, and labeled retinal axons were viewed with a fluorescence microscope (Nikon).
# (§1) Primary cultures of dissociated retinal cells were prepared from P2 wild-type or transgenic animals. RGCs were prelabeled by injecting DiI solution (25% in Dimethyl Formamide) into the tectal region bilaterally in P0 pups. Cells were plated in 24-cell wells treated with poly-L-lysine ([…], 4° C. overnight) and coated with Human Merosin ([…], r.t., 2 hr)(Meyer-Franke, A. and Barres, B. A. Neuron 15, 805-819 (1995)). Cultures were maintained for 2 to 3 days in NeuralBasal medium supplemented with B27. Trypan blue staining was used to examine the viability of retinal ganglion cells (RGCs). Retinotectal cocultures prepared from wild-type P2 mice were described previously and ZVAD (Z-Val-Ala-Asp-CH2F, Enzyme Systems Products) was added to the culture medium at the time of plating. Cell death was detected by staining with the fluorescent dye, SYTOX green fluorescent dead cell stain (Molecular Probes). Cultures were visualized under an inverted Nikon microscope equipped with Nomarski and epifluorescence illumination.
# The effect of the ICE inhibitor was also tested in the explant coculture system with tissue prepared from wild-type P2 mice.
# [2] = test system: retinal ganglion cells (RGCs); test: Dissociated retinal cell culture: survival and neurite outgrowth of prelabeled RGCs; assay type: cell-based, mouse
# Experimental: as §1
# Whether these two activities of neurons, survival and axonal growth, can be separated in vitro was next examined. […]
structure (smiles),measurement,setting,value
"CC(C)[C@H](NC(=O)OCc1ccccc1)C(=O)N[C@@H](C)C(=O)N[C@@H](CC(=O)O)C(=O)CF [ZVAD, Z-Val-Ala-Asp-CH2F] (HELM PEPTIDE1{[O=C(OCc1ccccc1)[*:2]].V.A.D.[FC[*:1]]}$$$$V2.0)",ability to promote axonal growth,[1]; overall conclusion of the ZVAD experiments,not sufficient to promote axonal growth; also recorded: not sufficient to support axonal growth
same,protection of cells from death in retinal explants compared with bcl-2 transgenic mouse,[1]; wild-type P2 mice,protected cells from death almost as well as bcl-2
same,number of growing retinal axons with increasing concentration of ZVAD,"[1]; wild-type P2 mice, ZVAD 50, 100, 200 µM",did not change significantly
same,extent of cell death in retinal explants,"[1]; wild-type P2 mice, ZVAD 50, 100, 200 µM, SYTOX green dead cell stain",reduced the extent of cell death; also recorded: number of dying cells in retinal explants decreased
same,"number of axons that invaded tectal slices, ZVAD-treated wild-type cultures versus bcl-2 transgenic mice","[1]; wild-type P2 mice, fold less than bcl-2 transgenic",10 fold
same,neurite outgrowth of labeled RGCs in dissociated culture,"[2]; ZVAD-treated RGCs from wild-type P2 animals, no neurotrophic factors added, n=36",round and devoid of neurites
same,RGC death in dissociated retinal cell culture,"[2]; retinae of P2 pups, ZVAD at a concentration of 10 mM or above, after 2 days in culture",effectively reduced RGC death
